Experimental findings from patent publication US20260217712A1, “SOLID STATE FORMS OF MNK INHIBITORS” (4E Therapeutics, Inc., priority 2023, published 2026) are described below.

Each structure is given as a SMILES string. Entries after “also recorded” stand apart in the source; their conditions may differ.

Format in all cases: physicochemical
Data set [1] is described as follows: Variable temperature XRPD (VT-XRPD). The source says:
XRPD diffractograms were collected on a PANalytical Empyrean diffractometer using Cu Kα radiation (45 kV, 40 mA, λ=1.544398 Å) in reflection geometry. The instrument was fitted with an Anton Paar CHC plus+ stage fitted with graphite/Kapton windows and equipped with air cooling coupled or a low vacuum pump system using an Edwards RV3 pump. A programmable divergence slit (in automatic mode), with a 10 mm fixed incident beam mask, Ni filter and 0.04 rad Soller slits were used on the incident beam. A PIXcel3D detector, placed on the diffracted beam, was fitted with a programmable anti-scatter slit (in automatic mode) and 0.04 rad Soller slits.
For variable temperature (VT-XRPD) experiments the samples were prepared and analyzed in an Anton Paar chromed sample holder. The sample chamber was under ambient atmosphere and a heating/cooling rate of 10° C./min was used with a 2 min isothermal hold before the measurement started. The measurement parameters are as per the standard screening data collection method (detailed above). Measurements were taken at the following temperatures: 25, 80, 170, 250, and 25° C.

A short description of data set [2]: Static storage at 40° C./75% RH, XRPD and HPLC post storage. The note with it: 7 days.
Data set [3] in a line: Heating for 24 h in a vacuum tray dryer, XRPD and HPLC. The note with it: 75° C., reduced pressure. The procedure: A polymorphism study of Structure (I) was performed at 75° C., 100° C., 175° C., and 250° C. About 500 mg of Structure (I) Pattern 3 was heated at 75° C. for 24 h in a vacuum tray dryer (VTD) under reduced pressure. Obtained material after heating at 75° C. was analyzed for purity by HPLC and XPRD analysis. […] Additionally, about 500 mg of Structure (I) was heated at 75° C. for 24 h in a VTD under reduced pressure. After 24 h, material was cooled to 25-30° C. under inert atmosphere and analyzed for purity by HPLC and XRPD.
About 500 mg of Structure (I) was heated at 100° C. for 24 h in a VTD under reduced pressure. Obtained material after heating at 100° C. was analyzed for purity by HPLC and XPRD. […] Additionally, about 500 mg of Structure (I) was heated at 100° C. for 24 h in a VTD under reduced pressure. After 24 h material was cooled to 25-30° C. under inert atmosphere. Obtained material was analyzed for purity by HPLC and XPRD.
Obtained material after heating at 175° C. was analyzed for purity by HPLC and XPRD. […] After 24 h, material was cooled to 25-30° C. under inert atmosphere. Obtained material was analyzed for purity by HPLC and XPRD.
About 500 mg of Structure (I) was heated at 250° C. for 24 h in a VTD. Obtained material after heating at 250° C. was analyzed for purity by HPLC and XPRD.

Data set [4] is described as follows: Static storage at 40° C./75% RH, XRPD and HPLC post storage. The settings on record: for stability to storage at 40° C./75% RH (in words): 40° C./75% RH (elevated temperature and humidity); for HPLC purity post storage at 40° C./75% RH: 7 days. In outline: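 Solids isolated as counter-ion salts of the compound were stored statically at 40° C./75% RH and then re-examined by XRPD for solid-form changes. Chemical purity after storage was checked on an Agilent HP1100/Infinity II 1260 series HPLC system fitted with a diode array detector and running OpenLAB software.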

For `Cc1cc(Nc2cc(N)ncn2)c(=O)n2c1C(=O)NC21CCC2(CC2)CC1` [Pattern 3], the “VT-XRPD form at 25-80° C.” value in data set [1] (25-80° C.) is given as 25-80° C.: Pattern 3. For the same molecule, the results for the “VT-XRPD form at 175° C.” value in data set [1] and in data set [1] (listed as Lot B Sample 1) were “Pattern 10 was again observed” and 175° C.: Pattern 10, respectively. Besides, in data set [1] (250° C., listed as Lot B Sample 1), the “VT-XRPD form at 250° C.” value was 250° C.: Patterns 10 and 11. For the same molecule, the “VT-XRPD form on cooling to 25° C.” value in data set [1] (cooling to 25° C.) is “Cooling to 25° C.: Patterns 11 and 3”. Also, the results for the “XRPD post storage at 40° C./75% RH” value in data set [2] (listed as 9-5) and in data set [2] (listed as Lot B Sample 1) were “remained unchanged by XRPD; also recorded: Free Form Pattern 3” and “Unchanged by XRPD”, respectively. Also, in data set [3], the “HPLC purity change after heating at 75° C.” value is “no change”. Further, the “XRPD form after heating at 75° C.” value in data set [3] is recorded as “remained as Pattern 3”. Further, the “stability to storage at 40° C./75% RH (in words)” value in data set [4] is reported as “good stability to storage”; in data set [4] (listed as Lot B) it was “remained unchanged”. For the same molecule, the “HPLC purity post storage at 40° C./75% RH” value in data set [4] (40° C./75% RH, listed as 9-5) worked out at 98.5%; in data set [4] (40° C./75% RH, listed as Lot B Sample 1) it was 98.8%. Moreover, the “change of chemical purity on storage at 40° C./75% RH (in words)” value in data set [4] (40° C./75% RH, listed as 9-5) is “small decrease in chemical purity”.
